These are literature values, as cited in patent US20080097335A1, “OCULAR IMPLANT DELIVERY ASSEMBLIES” (ALLERGAN, INC., priority 2006, published 2008).

For the data set the following is noted: efficacy in vivo; 25 mg dose of hydrocortisone equivalent to 1 mg dose of dexamethasone.

As for `C[C@]12CCC(=O)C=C1CC[C@@H]1[C@@H]2[C@@H](O)C[C@@]2(C)[C@H]1CC[C@]2(O)C(=O)CO` [hydrocortisone], the “potency relative to dexamethasone” value is reported as “approximately twenty-five fold less potent than dexamethasone”.
